The results in this text go back to US20100075965A1, “PI3 KINASE INHIBITORS AND METHODS OF THEIR USE” (Novartis AG, priority 2006, published 2010).

Read-outs that look alike come from different tables or passages of the source.

In one experiment the target is PI3 K Alpha (Homo sapiens, UniProt P42336). The experiment can be described thus: PI3 kinase phosphorylation assays (homogenous solution phase, one step solid phase, ATP depletion/KinaseGlo). It counts as biochemical.
In experiment [1] the test system is pSer473-Akt in A2780 cells. The experiment in a line: pSer473 Akt assay to monitor PI3K pathway in A2780 cells (MSD). Particulars: Homo sapiens, A2780 cells. Format: cell-based. On the procedure: In this method, an assay for measuring the PI3K-mediated pSer^473-Akt status after treatment with representative inhibitor compounds of the preferred embodiments is described.
A2780 cells were cultured in DMEM supplemented with 10% FBS, L-glutamine, sodium pyruvate, and antibiotics. Cells were plated in the same medium at a density of 15,000 cells per well into 96 well tissue culture plates, with outside wells vacant, and allowed to adhere overnight.
Test compounds supplied in DMSO were diluted further into DMSO at 500 times the desired final concentrations before dilution into culture media to 2 times the final concentrations. Equal volumes of 2× compounds in media were added to the cells in 96 well plates and incubated at 37° C. for one hour. The media and compounds were then removed, the plates chilled and cells lysed in a lysis buffer (150 mM NaCl, 20 mM Tris pH 7.5, 1 mM EDTA, 1 mM EGTA, 1% Triton X-100) supplemented with phosphatase and protease inhibitors. After thorough mixing, lysates were transferred to both pSer473Akt and total Akt assay plates from Meso Scale Discovery (MSD), and incubated overnight with shaking at 4° C. The plates were washed with 1×MSD wash buffer and the captured analytes detected with secondary antibodies. After incubation with the secondary antibody at room temperature for 1-2 hours, the plates were washed again and 1.5× concentration of Read Buffer T (MSD) was added to the wells.
The assays were read on a SECTOR Imager 6000 instrument (Meso Scale Discovery). Ratios of the signal from pSer473Akt and total Akt assays were used to correct for any variability and the percent inhibition of pSer473Akt from the total signal seen in cells treated with compound versus DMSO alone was calculated and used to determine EC50 values for each compound as shown in Tables 1 and 2 in the column labeled “A2780 pAKT473 EC50”.

In the next experiment the test system is A2780 cells. The experiment can be described thus: Viability assay in A2780 (Cell Titer Glo). Format: cell-based, human. Particulars: Homo sapiens, A2780 cells, read-out: A2780 Cell prolif. EC50. Summed up:
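A2780 cells (1,000/well, DMEM + 10% FBS) were exposed to 3-fold serial dilutions of compound for 72 hrs at 37° C, 5% CO2. Viable cells were read by Cell Titer Glo luminescence, in duplicate, and EC50 values were derived from the curves.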

The mark [2] stands for this setting: ATP depletion assay, read-out: PI3 K Alpha IC50.
[3] abbreviates: 1 h, one hour incubation, read-out: A2780 pAKT473 EC50.

PI3 K Alpha, sequence (P42336 whole entry): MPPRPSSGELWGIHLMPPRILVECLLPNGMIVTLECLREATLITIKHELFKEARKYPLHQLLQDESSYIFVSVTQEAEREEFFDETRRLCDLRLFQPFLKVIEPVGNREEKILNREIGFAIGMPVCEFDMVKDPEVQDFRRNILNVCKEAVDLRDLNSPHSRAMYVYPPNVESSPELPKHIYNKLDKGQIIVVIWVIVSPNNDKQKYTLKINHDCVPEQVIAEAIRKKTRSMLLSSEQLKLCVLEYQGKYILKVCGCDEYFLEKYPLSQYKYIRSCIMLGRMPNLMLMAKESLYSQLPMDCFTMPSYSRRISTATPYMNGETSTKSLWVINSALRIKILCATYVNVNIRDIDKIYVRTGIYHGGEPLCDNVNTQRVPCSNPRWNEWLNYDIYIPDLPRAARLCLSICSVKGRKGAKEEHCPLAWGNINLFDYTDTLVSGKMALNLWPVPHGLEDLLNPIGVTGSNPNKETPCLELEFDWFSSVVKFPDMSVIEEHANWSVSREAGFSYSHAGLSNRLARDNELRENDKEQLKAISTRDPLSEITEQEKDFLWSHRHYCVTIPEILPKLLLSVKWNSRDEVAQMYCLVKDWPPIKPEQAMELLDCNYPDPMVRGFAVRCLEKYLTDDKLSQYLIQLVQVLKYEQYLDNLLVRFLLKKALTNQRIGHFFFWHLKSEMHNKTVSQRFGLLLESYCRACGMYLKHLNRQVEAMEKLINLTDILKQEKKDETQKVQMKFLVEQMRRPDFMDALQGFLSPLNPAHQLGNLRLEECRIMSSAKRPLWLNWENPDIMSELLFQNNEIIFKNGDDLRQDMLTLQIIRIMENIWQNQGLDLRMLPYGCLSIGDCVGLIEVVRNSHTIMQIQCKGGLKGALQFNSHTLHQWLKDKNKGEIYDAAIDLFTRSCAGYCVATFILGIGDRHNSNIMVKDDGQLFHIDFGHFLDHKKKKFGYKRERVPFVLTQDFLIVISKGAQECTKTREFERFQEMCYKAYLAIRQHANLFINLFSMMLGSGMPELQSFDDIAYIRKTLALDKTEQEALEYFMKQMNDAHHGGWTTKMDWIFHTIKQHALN
PI3 K Alpha, sequence (P27986 whole entry partner): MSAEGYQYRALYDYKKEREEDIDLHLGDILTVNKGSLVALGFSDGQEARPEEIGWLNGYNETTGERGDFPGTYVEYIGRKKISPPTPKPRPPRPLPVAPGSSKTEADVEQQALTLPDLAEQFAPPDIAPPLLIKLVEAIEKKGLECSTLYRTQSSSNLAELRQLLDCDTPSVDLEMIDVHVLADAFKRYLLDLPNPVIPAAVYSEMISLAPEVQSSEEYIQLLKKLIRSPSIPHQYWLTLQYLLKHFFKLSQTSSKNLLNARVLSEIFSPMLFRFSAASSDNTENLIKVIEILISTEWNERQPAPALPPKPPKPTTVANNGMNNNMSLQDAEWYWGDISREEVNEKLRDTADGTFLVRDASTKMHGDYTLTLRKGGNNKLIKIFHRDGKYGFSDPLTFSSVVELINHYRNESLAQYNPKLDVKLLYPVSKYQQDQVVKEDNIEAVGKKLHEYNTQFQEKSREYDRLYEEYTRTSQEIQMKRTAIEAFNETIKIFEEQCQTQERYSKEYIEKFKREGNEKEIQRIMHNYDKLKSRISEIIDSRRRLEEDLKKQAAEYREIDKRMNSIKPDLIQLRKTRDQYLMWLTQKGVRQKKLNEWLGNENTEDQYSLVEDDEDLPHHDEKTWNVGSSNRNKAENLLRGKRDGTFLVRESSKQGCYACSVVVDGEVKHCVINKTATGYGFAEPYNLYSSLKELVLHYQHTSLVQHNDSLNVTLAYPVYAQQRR

With `CC(=O)Nc1cn2cc(-c3cnc(N)c(-c4ccccc4C(F)(F)F)c3)ccc2n1` [Example 120, N-(6-(6-amino-5-(2-(trifluoromethyl)phenyl)pyridin-3-yl)imidazo[1,2-a]pyridin-2-yl)acetamide], on PI3 K Alpha (read-out: PI3K Alpha IC50), the concentration for half-maximal inhibition (IC50) was less than 1000 nM. The EC50 is less than 1000 nM in experiment [1] (read-out: A2780 pAKT 473 EC50) and less than 10000 nM with A2780 cells.
As for `CC(=O)Nc1cn2nc(-c3cnc(N)c(-c4ccccc4OC(F)(F)F)c3)ccc2n1` [Example 90, N-(6-(6-amino-5-(2-(trifluoromethoxy)phenyl)pyridin-3-yl)imidazo[1,2-b]pyridazin-2-yl)acetamide], the IC50 at PI3 K Alpha (read-out: PI3K Alpha IC50) is less than 1000 nM. For the same compound, the EC50 (in experiment [1] (read-out: A2780 pAKT 473 EC50); in the experiment with A2780 cells) was less than 1000 nM each time.
For the compound `Nc1ncc(-c2ccc3nc(NC(=O)CCCO)cn3c2)cc1C(F)(F)F` [Example 27, N-[6-(6-Amino-5-trifluoromethyl-pyridin-3-yl)-imidazo[1,2-a]pyridin-2-yl]-4-hydroxy-butyramide], the IC50 at PI3 K Alpha (read-out: PI3K Alpha IC50) was less than 1000 nM. In addition, the EC50 in experiment [1] (read-out: A2780 pAKT 473 EC50) was less than 1000 nM; with A2780 cells, less than 10000 nM.
As to `CC(=O)Nc1nc2ccc(-c3cnc(N)c(C(F)(F)F)c3)cn2c1C#Cc1ccc(C)cc1` [Example 127, N-(6-(6-amino-5-(trifluoromethyl)pyridin-3-yl)-3-(p-tolylethynyl)imidazo[1,2-a]pyridin-2-yl)acetamide], the IC50 at PI3 K Alpha (read-out: PI3K Alpha IC50) is less than 1000 nM. In addition, the half-maximal effective concentration (EC50) was less than 1000 nM in experiment [1] (read-out: A2780 pAKT 473 EC50) and less than 10000 nM in the experiment on A2780 cells.
With `CC(C)(C)OC(=O)NCC(=O)Nc1cn2nc(-c3cnc(N)c(C(F)(F)F)c3)ccc2n1` [Example 135, tert-butyl 2-(6-(6-amino-5-(trifluoromethyl)pyridin-3-yl)imidazo[1,2-b]pyridazin-2-ylamino)-2-oxoethylcarbamate], the IC50 on PI3 K Alpha (read-out: PI3K Alpha IC50) was less than 1000 nM. The EC50 in experiment [1] (read-out: A2780 pAKT 473 EC50) was less than 1000 nM; with A2780 cells, less than 10000 nM.
For the compound `COCC(=O)Nc1cn2cc(-c3cnc(N)c(OCC(F)(F)F)n3)ccc2n1` [Example 89], the half-maximal inhibitory concentration (IC50) at PI3 K Alpha (read-out: PI3K Alpha IC50) was less than 1000 nM. For the same compound, the EC50 (in experiment [1] (read-out: A2780 pAKT 473 EC50); in the experiment on A2780 cells) was less than 1000 nM throughout.
As for `Nc1ncc(-c2ccc3nc(NC(=O)c4ccc(N5CCNCC5)nc4)cn3c2)cc1C(F)(F)F` [Example 126, N-(6-(6-amino-5-(trifluoromethyl)pyridin-3-yl)imidazo[1,2-a]pyridin-2-yl)-6-(piperazin-1-yl)nicotinamide], the IC50 at PI3 K Alpha (read-out: PI3K Alpha IC50) was less than 1000 nM. The EC50 is less than 1000 nM in experiment [1] (read-out: A2780 pAKT 473 EC50) and less than 10000 nM with A2780 cells.
Regarding `CC(=O)Nc1cn2cc(-c3cnc(N)c(-c4ccccc4F)c3)ccc2n1` [Example 114, N-(6-(6-amino-5-(2-fluorophenyl)pyridin-3-yl)imidazo[1,2-a]pyridin-2-yl)acetamide], the half-maximal inhibitory concentration (IC50) on PI3 K Alpha (read-out: PI3K Alpha IC50) is less than 1000 nM. The EC50 in experiment [1] (read-out: A2780 pAKT 473 EC50) is less than 1000 nM; in the experiment with A2780 cells, less than 10000 nM.
For the compound `CC(=O)Nc1nc2ccc(-c3cnc(N)cc3C)cc2s1` [Example 2-18, N-[6-(6-Amino-4-methyl-pyridin-3-yl)-benzothiazol-2-yl]-acetamide], the 50% inhibitory concentration (IC50) on PI3 K Alpha (setting [2]) was less than 1000 nM. Moreover, the EC50 in experiment [1] (setting [3]) was less than 10000 nM; in the experiment with A2780 cells (72 hrs), less than 25000 nM.
The like results for `COCCOc1nc(-c2ccc3nc(NC(C)=O)sc3c2)cnc1N` [Example 2-32, N-(6-(5-amino-6-(2-methoxyethoxy)pyrazin-2-yl)benzo[d]thiazol-2-yl)acetamide] were, in that order, less than 1000 nM, less than 1000 nM and less than 10000 nM.
The corresponding values for `CC(=O)Nc1nc2ccc(-c3cnc(N)c(C(F)(F)F)c3)c(F)c2s1` [Example 2-30, N-[6-(6-Amino-5-trifluoromethyl-pyridin-3-yl)-7-fluoro-benzothiazol-2-yl]-acetamide] are less than 1000 nM, less than 1000 nM and less than 10000 nM.
The corresponding values for `Nc1ccc(-c2ccc3nc(NC(=O)CCCN4CCOCC4)sc3c2)cn1` [Example 2-10, N-[6-(6-Amino-pyridin-3-yl)-benzothiazol-2-yl]-4-morpholin-4-yl-butyramide] are less than 1000 nM, less than 1000 nM and less than 25000 nM.
For `COc1ccc(C#Cc2c(NC(C)=O)nc3ccc(-c4cnc(N)c(C(F)(F)F)c4)cn23)cc1` [Example 117, N-(6-(6-amino-5-(trifluoromethyl)pyridin-3-yl)-3-((4-methoxyphenyl)ethynyl)imidazo[1,2-a]pyridin-2-yl)acetamide], the half-maximal inhibitory concentration (IC50) at PI3 K Alpha (read-out: PI3K Alpha IC50) was less than 1000 nM. The EC50 in experiment [1] (read-out: A2780 pAKT 473 EC50) was less than 1000 nM; in the experiment on A2780 cells, less than 10000 nM.
For the compound `COCC(=O)Nc1cn2nc(-c3cnc(N)c(C(F)(F)F)c3)ccc2n1` [Example 74, n-(6-(6-amino-5-(trifluoromethyl)pyridin-3-yl)imidazo[1,2-b]pyridazin-2-yl)-2-methoxyacetamide], the IC50 on PI3 K Alpha (read-out: PI3K Alpha IC50) is less than 1000 nM. For the same compound, the half-maximal effective concentration (EC50) (in experiment [1] (read-out: A2780 pAKT 473 EC50); in the experiment with A2780 cells) was less than 1000 nM throughout.
Regarding `CC(=O)Nc1cn2cc(-c3cnc(N)c(C#N)c3)ccc2n1` [Example 235, N-(6-(6-amino-5-cyanopyridin-3-yl)imidazo[1,2-a]pyridin-2-yl)acetamide], on PI3 K Alpha (read-out: PI3K Alpha IC50), the IC50 was less than 1000 nM. Also, the EC50 (in experiment [1] (read-out: A2780 pAKT 473 EC50); with A2780 cells) was less than 10000 nM each time.
Consider `CC(=O)Nc1cn2cc(-c3ccc(N)nc3)ccc2n1` [Example 3, N-[6-(6-Amino-pyridin-3-yl)-imidazo[1,2-a]pyridin-2-yl]-acetamide], for which the IC50 on PI3 K Alpha (read-out: PI3K Alpha IC50) is less than 1000 nM. Further, the EC50 in experiment [1] (read-out: A2780 pAKT 473 EC50) was less than 1000 nM; with A2780 cells, less than 10000 nM.
Consider `CC(=O)Nc1cn2cc(-c3cnc(N)c(/C=N/Nc4ccccc4)c3)ccc2n1` [Example 58, (E)-N-(6-(6-amino-5-((2-phenylhydrazono)methyl)pyridin-3-yl)imidazo[1,2-a]pyridin-2-yl)acetamide], for which, at PI3 K Alpha (read-out: PI3K Alpha IC50), the 50% inhibitory concentration (IC50) was less than 1000 nM. Moreover, the 50% effective concentration (EC50) in experiment [1] (read-out: A2780 pAKT 473 EC50) was less than 10000 nM; in the experiment with A2780 cells, less than 1000 nM.
With `CC(=O)Nc1nc2ccc(-c3cnc(N)c(C(F)(F)F)c3)cn2c1C#CCN1CCOCC1` [Example 213, N-(6-(6-amino-5-(trifluoromethyl)pyridin-3-yl)-3-(3-morpholino-prop-1-ynyl)imidazo[1,2-a]pyridin-2-yl)acetamide], the IC50 at PI3 K Alpha (read-out: PI3K Alpha IC50) is less than 1000 nM. In addition, the EC50 (in experiment [1] (read-out: A2780 pAKT 473 EC50); with A2780 cells) was less than 10000 nM throughout.
For the compound `CC(=O)Nc1cn2cc(-c3cnc(N)c(-c4cccc(N5CCOCC5)c4)c3)ccc2n1` [Example 86, N-(6-(6-amino-5-(3-morpholino-phenyl)pyridin-3-yl)imidazo[1,2-a]pyridin-2-yl)acetamide], the IC50 at PI3 K Alpha (read-out: PI3K Alpha IC50) is less than 1000 nM. For the same compound, the EC50 (in experiment [1] (read-out: A2780 pAKT 473 EC50); in the experiment on A2780 cells) was less than 1000 nM in each case.
With `CC(=O)Nc1cn2cc(-c3cnc(N)c(C(F)(F)F)c3)cc(F)c2n1` [Example 190, N-(6-(6-amino-5-(trifluoromethyl)pyridin-3-yl)-8-fluoroimidazo [1,2-a]pyridin-2-yl)acetamide], on PI3 K Alpha (read-out: PI3K Alpha IC50), the IC50 was less than 1000 nM. Besides, the EC50 was less than 1000 nM in experiment [1] (read-out: A2780 pAKT 473 EC50) and less than 10000 nM with A2780 cells.
On to `CC(=O)Nc1nc2c(F)cc(-c3cnc(N)c(C(F)(F)F)c3)cc2s1` [Example 2-31, N-[6-(6-Amino-5-trifluoromethyl-pyridin-3-yl)-4-fluoro-benzothiazol-2-yl]-acetamide], for which, on PI3 K Alpha (setting [2]), the IC50 is less than 1000 nM. The results for the EC50 (in experiment [1] (setting [3]); in the experiment on A2780 cells (72 hrs)) were less than 1000 nM and less than 25000 nM, respectively.
For the compound `CC(=O)Nc1cn2cc(-c3cnc(N)c(-c4ccccc4N4CCOCC4)c3)ccc2n1` [Example 105, N-(6-(6-amino-5-(2-morpholino-phenyl)pyridin-3-yl)imidazo[1,2-a]pyridin-2-yl)acetamide], at PI3 K Alpha (read-out: PI3K Alpha IC50), the IC50 was less than 1000 nM. For the same compound, the EC50 (in experiment [1] (read-out: A2780 pAKT 473 EC50); in the experiment with A2780 cells) was less than 1000 nM in each case.
Turning to `CC(C)(C)OC(=O)N1CCN(c2ccc(C(=O)Nc3cn4cc(-c5cnc(N)c(C(F)(F)F)c5)ccc4n3)cn2)CC1` [Example 85, tert-butyl 4-(5-(6-(6-amino-5-(trifluoromethyl)pyridin-3-yl)imidazo[1,2-a]pyridin-2-ylcarbamoyl)pyridin-2-yl)piperazine-1-carboxylate], the IC50 at PI3 K Alpha (read-out: PI3K Alpha IC50) was less than 1000 nM. For the same compound, the EC50 (in experiment [1] (read-out: A2780 pAKT 473 EC50); in the experiment with A2780 cells) was less than 1000 nM throughout.
For `COC(=O)Nc1cn2cc(-c3cnc(N)c(C(F)(F)F)c3)ccc2n1` [Example 19, [6-(6-Amino-5-trifluoromethyl-pyridin-3-yl)-imidazo[1,2-a]pyridin-2-yl]-carbamic acid methyl ester], the IC50 at PI3 K Alpha (read-out: PI3K Alpha IC50) was less than 1000 nM. In addition, the values for the EC50 (in experiment [1] (read-out: A2780 pAKT 473 EC50); in the experiment with A2780 cells) were less than 1000 nM and less than 10000 nM, respectively.
